Measured values taken from the NIST ThermoML archive (doi:10.1021/je050376y).

Legend:
[1] = 101 kPa, Liquid
[2] = xn = mol fraction of the nth substance listed; conditions: 101 kPa, Liquid

OCCO [1,2-ethanediol]
[1]
Conditions | mass density [kg/m3] | viscosity [mPa·s]
308.15 K | 1101.88 | 11.19
313.15 K | 1098.33 | 9.444
318.15 K | 1094.75 | 7.972
323.15 K | 1091.16 | 6.794
333.15 K | 1083.94 | 5.065
343.15 K | 1074.53 | 3.879
353.15 K | 1069.72 | 3.058

OCCO [1,2-ethanediol] + Cc1ccc(O)cc1
[2], x2 = 0
Conditions | mass density [kg/m3] | viscosity [mPa·s]
308.15 K | 1101.88 | 11.19
313.15 K | 1098.33 | 9.444
318.15 K | 1094.75 | 7.972
323.15 K | 1091.16 | 6.794
333.15 K | 1083.94 | 5.065
343.15 K | 1074.53 | 3.879
353.15 K | 1069.72 | 3.058

Cc1ccc(O)cc1 [4-methylphenol]
[1]
Conditions | mass density [kg/m3] | viscosity [mPa·s]
308.15 K | 1021.98 | 8.444
313.15 K | 1018.05 | 6.745
318.15 K | 1014.09 | 5.471
323.15 K | 1010.12 | 4.532
328.15 K | 1006.57 | 3.888
333.15 K | 1002.09 | 3.245
343.15 K | 992.07 | 2.431
353.15 K | 986.24 | 1.891

Cc1ccc(O)cc1 [4-methylphenol] + CO
[2]
Conditions | mass density, 308.15 K [kg/m3] | mass density, 313.15 K [kg/m3] | mass density, 318.15 K [kg/m3] | mass density, 323.15 K [kg/m3] | mass density, 328.15 K [kg/m3] | viscosity, 308.15 K [mPa·s] | viscosity, 313.15 K [mPa·s] | viscosity, 318.15 K [mPa·s] | viscosity, 323.15 K [mPa·s] | viscosity, 328.15 K [mPa·s]
x1 = 0.1 | 837.27 | 832.69 | 828.09 | 823.45 | 819.09 | 0.701 | 0.652 | 0.608 | 0.568 | 0.533
x1 = 0.1999 | 881.21 | 876.78 | 872.35 | 867.89 | 863.71 | 0.977 | 0.901 | 0.834 | 0.772 | 0.719
x1 = 0.2998 | 914.53 | 910.25 | 905.93 | 901.61 | 897.58 | 1.333 | 1.218 | 1.112 | 0.998 | 0.942
x1 = 0.4 | 940.54 | 936.35 | 932.16 | 927.93 | 924.03 | 1.762 | 1.588 | 1.435 | 1.305 | 1.192
x1 = 0.4999 | 961.59 | 957.48 | 953.35 | 949.21 | 945.39 | 2.316 | 2.044 | 1.817 | 1.633 | 1.477
x1 = 0.5999 | 977.95 | 973.9 | 969.84 | 965.76 | 962.01 | 3.021 | 2.631 | 2.31 | 2.043 | 1.821
x1 = 0.6999 | 992.04 | 988.04 | 984.03 | 980 | 976.3 | 3.928 | 3.36 | 2.894 | 2.527 | 2.229
x1 = 0.8 | 1003.53 | 999.57 | 995.58 | 991.58 | 987.91 | 5.072 | 4.251 | 3.603 | 3.092 | 2.688
x1 = 0.8999 | 1013.73 | 1009.79 | 1005.83 | 1001.84 | 998.2 | 6.535 | 5.364 | 4.44 | 3.754 | 3.212
x1 = 1 | 1021.98 | 1018.05 | 1014.09 | 1010.12 | 1006.57 | 8.444 | 6.745 | 5.471 | 4.532 | 3.888

CO [methanol]
[1]
Conditions | mass density [kg/m3] | viscosity [mPa·s]
308.15 K | 776.92 | 0.476
313.15 K | 772.13 | 0.445
318.15 K | 767.31 | 0.421
323.15 K | 762.46 | 0.395
328.15 K | 757.85 | 0.372

CO [methanol] + Cc1ccc(O)cc1
[2], x2 = 0
Conditions | mass density [kg/m3] | viscosity [mPa·s]
308.15 K | 776.92 | 0.476
313.15 K | 772.13 | 0.445
318.15 K | 767.31 | 0.421
323.15 K | 762.46 | 0.395
328.15 K | 757.85 | 0.372
